This note sets out measurements from patent US6544987B2, “Compounds, compositions, and methods for stimulating neuronal growth and elongation” (Pfizer Inc., priority 1999, dated 2003).

pKi: −log10 of the molar value. “And” between values parts separate entries of the source, which are not always exact repeats. Equal values may be shown once. Where only a bound is given, the exact number is not on record here.

Sequence of FKBP12 (P62942 whole entry, species assumed): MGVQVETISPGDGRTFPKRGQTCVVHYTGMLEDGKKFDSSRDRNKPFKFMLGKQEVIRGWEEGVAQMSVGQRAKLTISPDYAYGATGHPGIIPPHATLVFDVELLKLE

The target in the experiment is FKBP12 (Homo sapiens, UniProt P62942). Description: Affinity for FKBP-12 (Ki), succinyl-Ala-Leu-Pro-Phe-pNA chymotrypsin-coupled assay. Format: biochemical. To be noted: Table 2; read-out: FKBP12 Kiapps. On the procedure:
In a quartz cuvette, a final 1 mL buffer concentration was reached (50 mM Hepes, 100 mM NaCl, pH 8.0). Within this final reaction volume, 3.5 μL […] FKBP-12 (in 50 mM Hepes, 100 mM NaCl, pH 8.0) and 10 μL test compound in DMSO were added. The reaction was initiated by adding 10 μL chymotrypsin (100 mg/mL in 1 mM HCl) followed by 5 μL (1-20 mM succinyl-Ala-Leu-Pro-Phe-pNA in 240 mM LiCl/TFE).
The absorbance at 390 nm versus time was monitored for up to 400 seconds. Rate constants were determined from the absorbance versus time plots generated.
For the compound `O=C(OCCCCc1ccccc1)[C@@H]1CCCCN1S(=O)(=O)Oc1ccccc1` [Compound 13, 1-Phenoxy sulfonyl-piperidine-2S-carboxylic acid 4-phenyl-butyl ester], the pKi is 5.19.

Consider `O=C(OCc1ccccc1)[C@@H]1CCCN1S(=O)(=O)Oc1ccccc1` [Compound 15, 1-Phenoxy sulfonyl-pyrrolidine-2S-carboxylic acid benzyl ester], for which the pKi was 4.56.

Take `CCC(C)(C)NS(=O)(=O)N1CCC[C@H]1C(=O)OCc1ccccc1` [Compound 27, 1-(1,1-Dimethyl-propylsulfamoyl)-pyrrolidine-2S-carboxylic acid Benzyl ester]: the pKi was 5.55.

Turning to `O=C(OCc1ccccc1)[C@@H]1CCCN1S(=O)(=O)Nc1ccccc1` [Compound 28, 1-Phenylsulfamoyl-pyrrolidine-2S-carboxylic acid Benzyl ester], the pKi is 4.71.

For the compound `COc1cc(NS(=O)(=O)N2CCC[C@H]2C(=O)OCc2ccccc2)cc(OC)c1OC` [Compound 29, 1-(3,4,5-Trimethoxy-phenylsulfamoyl)-pyrrolidine-2S-carboxylic acid Benzyl ester], the pKi is 4.46.

As for `COc1cc(NS(=O)(=O)N2CCCC[C@H]2C(=O)OCc2ccccc2)cc(OC)c1OC` [Compound 36, 1-(3,4,5-Trimethoxy-phenylsulfamoyl)-piperidine-2S-carboxylic acid Benzyl ester], the pKi is 6.40.

With `NS(=O)(=O)N1CCCC[C@H]1C(=O)OCc1ccccc1` [Compound 37, 1-sulfamoyl-piperidine-2S-carboxylic acid Benzyl ester], the pKi was 3.91.

For `CCC(C)(C)NS(=O)(=O)N1CCCC[C@H]1C(=O)OCc1ccccc1` [Compound 38, 1-(1,1-Dimethyl-propylsulfamoyl)-piperidine-2S-carboxylic acid Benzyl ester], the pKi is 6.17.

On to `COc1cc(NS(=O)(=O)N2CCCC[C@H]2C(=O)O)cc(OC)c1OC` [Compound 39, 1-(3,4,5-Trimethoxy-phenylsulfamoyl)-piperidine-2S-carboxylic acid], for which the pKi is less than 4.00.

Regarding `COc1cc(N2C(=O)[C@@H]3CCCCN3S2(=O)=O)cc(OC)c1OC` [Compound 40, 1,1-Dioxo-2-(3,4,5-trimethoxy-phenyl)-hexahydro-1-[1,2,5] Thiadiazolo [2,3-] pyridin-3-one], the pKi was 3.64.

`NS(=O)(=O)N1CCCC[C@H]1C(=O)OCCCCc1ccccc1` [Compound 41, 1-Sulfamoyl-piperidine-2S-carboxylic acid 4-phenyl-butyl ester]: the pKi is 4.42.

Consider `O=C(OCCCCc1ccccc1)[C@@H]1CCCCN1S(=O)(=O)Nc1ccc(N2CCOCC2)cc1` [Compound 42, (S)-1-(4-morpholin-4-yl-phenylsulfamoyl)-piperidine-2-carboxylic 4-phenyl-butyl ester], for which the pKi is 6.58.

As to `COc1ccc(N(C)S(=O)(=O)N2CCCC[C@H]2C(=O)OCCCCc2ccccc2)cc1` [Compound 43, 1-[(4-methoxy-phenyl)-methyl-sulfamoyl]-piperidine-2S-carboxylic acid 4-phenyl-butyl ester], the pKi is 4.72.

Take `CN(c1ccccc1)S(=O)(=O)N1CCCC[C@H]1C(=O)OCCCCc1ccccc1` [Compound 44, 1-(Methyl-phenyl-sulfamoyl)-piperidine-2S-carboxylic acid 4-phenyl-butyl ester]: the pKi is 4.92.

`O=C(OCCCCc1ccccc1)[C@@H]1CCCCN1S(=O)(=O)Nc1ccc2[nH]c(=O)[nH]c2c1` [Compound 45, 1-(2-Oxo-2,3-dihydro-1H-benzoimidazol-5-ylsulfamoyl)-piperidine-2-carboxylic acid 4-phenyl-butyl ester]: the pKi is 7.08.

On to `COc1ccc2nc(NS(=O)(=O)N3CCCC[C@H]3C(=O)OCCCCc3ccccc3)sc2c1` [Compound 46, 1-(6-Methoxy-benzothiazol-2-ylsulfamoyl)-piperidine-2S-carboxylic acid 4-phenyl-butyl ester], for which the pKi is 4.43.

For `O=C(OCCCCc1ccccc1)[C@@H]1CCCCN1S(=O)(=O)Nn1cccc1` [Compound 47, 1-(Pyrrol-1-ylsulfamoyl)-piperidine-2S-carboxylic acid 4-phenylbutyl ester], the pKi is 5.80.

On to `COc1cc(NS(=O)(=O)N2CCCC[C@H]2C(=O)OCCCCc2ccccc2)cc(OC)c1` [Compound 48, 1-(3,5-Dimethoxy-phenylsulfamoyl)-piperidine-2S-carboxylic acid 4-phenyl-butyl ester], for which the pKi is 6.46.

With `COc1ccc(NS(=O)(=O)N2CCCC[C@H]2C(=O)OCCCCc2ccccc2)cn1` [Compound 49, 1-(6-methoxy-pyridin-3-ylsulfamoyl)-piperidine-2S-carboxylic acid 4-phenyl-butyl ester], the pKi was 7.10.

On to `NC(=O)C1CCCN(S(=O)(=O)N2CCCC[C@H]2C(=O)OCCCCc2ccccc2)C1` (stereo partly drawn) [Compound 51, 1-(3-Carbamoyl-piperidine-1-sulfonyl)-piperidine-2S-carboxylic acid 4-phenyl-butyl ester], for which the pKi was 6.03.

`O=C(OCCCCc1ccccc1)[C@@H]1CCCCN1S(=O)(=O)Nc1ccc(Cl)nc1` [Compound 52, (S)-1-(6-Chloro-pyridin-3-ylsulfamoyl)-piperidine-2-carboxylic acid 4-phenyl-butyl ester]: the pKi was 6.82.

Regarding `COC(OC)c1ccn(S(=O)(=O)N2CCCC[C@H]2C(=O)OCCCCc2ccccc2)n1` [Compound 53, 1-(3-Dimethoxymethyl-pyrazole-1-sulfonyl)-peperidine-2-carboxyic acid 4-phenyl-butyl ester], the pKi was 5.54.

Take `COc1ccc(N(C)S(=O)(=O)N2CCCC[C@H]2C(=O)OCCCCc2ccccc2)cc1[N+](=O)[O-]` [Compound 54, (S)-1-[(4-Methoxy-3-nitro-phenyl)-methyl-sulfamoyl]-piperidine-2-carboxylic acid 4-phenyl-butyl ester]: the pKi was 4.59.

Regarding `COc1ccc(N(C)S(=O)(=O)N2CCCC[C@H]2C(=O)OCCCCc2ccccc2)cc1N` [Compound 55, (S)-1-[(3-Amino-4-methoxy-phenyl)-methyl-sulfamoyl]-piperidine-2-carboxylic acid 4-phenyl-butyl ester], the pKi is 4.88.

Turning to `O=C(OCCCCc1ccccc1)[C@@H]1CCCCN1S(=O)(=O)Nc1ccc2nc[nH]c2c1` [Compound 56, (S)-1-(3H-Benzoimidazol-5-ylsulfamoyl)-piperidine-2-carboxylic acid 4-phenyl-butyl ester], the pKi was 6.32.

For `COc1cc(NS(=O)(=O)N2CCCC[C@H]2C(=O)NCCCCc2ccccc2)cc(OC)c1OC` [Compound 59, (S)-1-(3,4,5-Trimethoxy-phenylsulfamoyl)-piperidine-2-carboxylic acid (4-phenyl-butyl)-amide], the pKi was 6.83.

As for `NS(=O)(=O)N1CCSCC1C(=O)OCCCCc1ccccc1` (stereo not shown) [Compound 67, 4-sulfamoyl-thiomorpholine-3-carboxylic acid 4-phenyl-butyl ester], the pKi was 3.48 and 3.57.

As for `COc1cc(NS(=O)(=O)N2CCSCC2C(=O)OCCCCc2ccccc2)cc(OC)c1OC` (stereo not shown) [Compound 68, 4-(3,4,5-trimethoxy-phenylsulfamoyl)-thiomorpholine-3-carboxylic acid 4-phenyl-butyl ester], the pKi was 5.36 and 5.19.
